target: T1, GST-RIPK1 (recombinant GST-RIPK1 kinase domain (residues 1-327)) (Homo sapiens, UniProt Q13546); assay: RIPK1-ADP-Glo Enzymatic Assay; assay type: biochemical; conditions: ten-point titration, top compound concentration of 100000 nM; 25 nM GST-RIPK1, 300 μM ATP, 3 μM dephosphorylated-MBP; 30 min pre-incubation, 150 min reaction
T1 construct: recombinant GST-RIPK1 kinase domain (residues 1-327) enzyme produced from baculovirus-transfected Sf21 cells; host or cells: baculovirus-transfected Sf21 insect cells
T1 sequence (Q13546 1-327): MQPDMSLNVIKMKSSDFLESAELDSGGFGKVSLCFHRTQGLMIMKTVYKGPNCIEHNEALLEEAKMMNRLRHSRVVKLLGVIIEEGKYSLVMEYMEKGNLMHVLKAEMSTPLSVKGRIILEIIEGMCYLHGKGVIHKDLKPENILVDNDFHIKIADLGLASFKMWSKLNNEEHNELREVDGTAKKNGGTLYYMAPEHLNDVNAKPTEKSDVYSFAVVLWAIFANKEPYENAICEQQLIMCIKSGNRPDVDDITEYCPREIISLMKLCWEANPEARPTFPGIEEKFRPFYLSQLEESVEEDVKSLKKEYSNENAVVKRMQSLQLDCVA
In short: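 ADP-Glo luminescence quantifies ADP formed over 150 minutes by 25 nM Sf21-produced GST-RIPK1 (1-327) using 300 μM ATP and 3 μM dephosphorylated MBP, following 30-minute compound preincubation at 1% DMSO. Ten-point 1:3 series from 100000 nM gave EC50 via four-parameter sigmoidal regression.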

Structure (SMILES)	EC50 [nM]
N#Cc1ccc(OC2CCC2)cc1COC1CC2(C1)OC1CC[C@@H](c3cnccn3)N1C2=O (stereo partly drawn) [Example 18.40, 4-(cyclobutyloxy)-2-({[(5′S)-3′-oxo-5′-(pyrazin-2-yl)tetrahydro-3′H-spiro[cyclobutane-1,2′-pyrrolo[2,1-b][1,3]oxazol]-3-yl]oxy}methyl)benzonitrile]	119
Cc1ccc(OC2CC3(C2)O[C@@H]2CC[C@@H](c4ccn(C)n4)N2C3=O)cn1 (stereo partly drawn) [Example 19.7, (5′S,7a′R)-5′-(1-methyl-1H-pyrazol-3-yl)-3-[(6-methylpyridin-3-yl)oxy]tetrahydro-3′H-spiro[cyclobutane-1,2′-pyrrolo[2,1-b][1,3]oxazol]-3′-one]	531
Cc1ncccc1COC1CC2(C1)O[C@@H]1CC[C@@H](c3cnccn3)N1C2=O (stereo partly drawn) [Example 20.5, (5′S,7a′R)-3-[(2-methylpyridin-3-yl)methoxy]-5′-(pyrazin-2-yl)tetrahydro-3′H-spiro[cyclobutane-1,2′-pyrrolo[2,1-b][1,3]oxazol]-3′-one]	74
O=C1N2[C@@H](CC[C@H]2c2cnccn2)OC12CC(OCc1cccnc1C(F)(F)F)C2 (stereo partly drawn) [Example 20.6, (5′S,7a′R)-5′-(pyrazin-2-yl)-3-{[2-(trifluoromethyl)pyridin-3-yl]methoxy}tetrahydro-3′H-spiro[cyclobutane-1,2′-pyrrolo[2,1-b][1,3]oxazol]-3′-one]	86
O=C1N2C(CC[C@H]2c2cnccn2)OC12CC(OCc1nnc(Cc3ccccc3)s1)C2 (stereo partly drawn) [Example 18.12, (5′S)-3-[(5-benzyl-1,3,4-thiadiazol-2-yl)methoxy]-5′-(pyrazin-2-yl)tetrahydro-3′H-spiro[cyclobutane-1,2′-pyrrolo[2,1-b][1,3]oxazol]-3′-one]	181
N#Cc1cncc(O[C@H]2C[C@@]3(C2)O[C@@H]2CC[C@@H](c4ccccc4)N2C3=O)n1 [Example 9.16, 6-{[(1r,3R,5′S,7a′R)-3′-oxo-5′-phenyltetrahydro-3′H-spiro[cyclobutane-1,2′-pyrrolo[2,1-b][1,3]oxazol]-3-yl]oxy}pyrazine-2-carbonitrile]	78
O=C1N2[C@@H](CC[C@H]2c2cc(F)cc(F)c2)O[C@]12C[C@H](Oc1cccc3ncnn13)C2 [Example 9.26, (1r,3R,5′S,7a′R)-5′-(3,5-difluorophenyl)-3-[([1,2,4]triazolo[1,5-a]pyridin-5-yl)oxy]tetrahydro-3′H-spiro[cyclobutane-1,2′-pyrrolo[2,1-b][1,3]oxazol]-3′-one]	276
O=C1N2[C@@H](CC[C@H]2c2cnccn2)OC12CC(OCc1cnn(C34CC(C3)C4)c1)C2 (stereo partly drawn) [Example 18.6, (5′S, 7a′R)-3-{[1-(bicyclo[1.1.1]pentan-1-yl)-1H-pyrazol-4-yl]methoxy}-5′-(pyrazin-2-yl)tetrahydro-3′H-spiro[cyclobutane-1,2′-pyrrolo[2,1-b][1,3]oxazol]-3′-one]	365
O=C1N2C(CC[C@H]2c2cnccn2)OC12CC(OCc1ccc3nc(C4CC4)cn3c1)C2 (stereo partly drawn) [Example 18.73, (5′S)-3-[(2-cyclopropylimidazo[1,2-a]pyridin-6-yl)methoxy]-5′-(pyrazin-2-yl)tetrahydro-3′H-spiro[cyclobutane-1,2′-pyrrolo[2,1-b][1,3]oxazol]-3′-one]	111

These reach a lower EC50. Values come first.

EC50 [nM]	Structure (SMILES)
24	N#Cc1cc(O[C@H]2C[C@@]3(C2)O[C@@H]2CC[C@@H](c4ccc(F)cn4)N2C3=O)ncn1 [Example 9.47, 6-{[(5′S,7a′R)-5′-(5-fluoropyridin-2-yl)-3′-oxotetrahydro-3′H-spiro[cyclobutane-1,2′-pyrrolo[2,1-b][1,3]oxazol]-3-yl]oxy}pyrimidine-4-carbonitrile]
31	O=C1N2C(CC[C@H]2c2cnccn2)OC12CC(OCc1ccc3nc(C(F)(F)F)sc3c1)C2 (stereo partly drawn) [Example 18.48]
30	Cn1ccc([C@@H]2CC[C@H]3OC4(CC(Oc5cccc(-c6ccnn6C)c5)C4)C(=O)N32)n1 (stereo partly drawn) [Example 19.10, (5′S,7a′R)-5′-(1-methyl-1H-pyrazol-3-yl)-3-[3-(1-methyl-1H-pyrazol-5-yl)phenoxy]tetrahydro-3′H-spiro[cyclobutane-1,2′-pyrrolo[2,1-b][1,3]oxazol]-3′-one]
20	O=C1N2[C@@H](CC[C@H]2c2ccccc2)OC12CC(Oc1cccc3sncc13)C2 (stereo partly drawn) [Example 8.12, (5′S,7a′R)-3-[(1,2-benzothiazol-4-yl)oxy]-5′-phenyltetrahydro-3′H-spiro[cyclobutane-1,2′-pyrrolo[2,1-b][1,3]oxazol]-3′-one]
35	O=C1N2[C@@H](CC[C@H]2c2cnccn2)OC12CC(OCc1cccc(F)c1)C2 (single isomer, unassigned) [Example 22.8]
15	Cn1nccc1-c1cccc(OC2CC3(C2)O[C@@H]2CC[C@@H](c4cnccn4)N2C3=O)c1 (stereo partly drawn) [Example 19.13, (5′S,7a′R)-3-[3-(1-methyl-1H-pyrazol-5-yl)phenoxy]-5′-(pyrazin-2-yl)tetrahydro-3′H-spiro[cyclobutane-1,2′-pyrrolo[2,1-b][1,3]oxazol]-3′-one]
18	O=C1N2[C@@H](CC[C@H]2c2cnccn2)O[C@]12C[C@@H](OCc1ccccc1Cl)C2 [Example 22.1, (1S,3S,5′S,7a′R)-3-((2-chlorobenzyl)oxy)-5′-(pyrazin-2-yl)tetrahydro-3′H-spiro[cyclobutane-1,2′-pyrrolo[2,1-b]oxazol]-3′-one]
16	N#Cc1cc(O[C@H]2C[C@@]3(C2)O[C@@H]2CC[C@@H](c4cc(F)cc(F)c4)N2C3=O)ncn1 [Example 9.2, 6-(((5′S,7a′R)-5′-(3,5-difluorophenyl)-3′-oxotetrahydro-3′H-spiro[cyclobutane-1,2′-pyrrolo[2,1-b]oxazol]-3-yl)oxy)pyrimidine-4-carbonitrile]
12	COc1ccc(COC2CC3(C2)OC2CC[C@@H](c4cnccn4)N2C3=O)cc1CC#N (stereo partly drawn) [Example 18.38, [2-methoxy-5-({[(5′S)-3′-oxo-5′-(pyrazin-2-yl)tetrahydro-3′H-spiro[cyclobutane-1,2′-pyrrolo[2,1-b][1,3]oxazol]-3-yl]oxy}methyl)phenyl]acetonitrile]
12	N#CC1(c2ccc(COC3CC4(C3)OC3CC[C@@H](c5cnccn5)N3C4=O)c(Cl)c2)CC1 (stereo partly drawn) [Example 18.29, 1-[3-chloro-4-({[(5′S)-3′-oxo-5′-(pyrazin-2-yl)tetrahydro-3′H-spiro[cyclobutane-1,2′-pyrrolo[2,1-b][1,3]oxazol]-3-yl]oxy}methyl)phenyl]cyclopropane-1-carbonitrile]
11	O=C1N2[C@@H](CC[C@H]2c2ccccc2)O[C@]12C[C@H](Oc1ncnn3cccc13)C2 [Example 9.24, (1r,3R,5′S,7a′R)-5′-phenyl-3-[(pyrrolo[2,1-f][1,2,4]triazin-4-yl)oxy]tetrahydro-3′H-spiro[cyclobutane-1,2′-pyrrolo[2,1-b][1,3]oxazol]-3′-one]
30	O=C1N2[C@@H](CC[C@H]2c2cc(F)cc(F)c2)OC12CC(Oc1ccccc1)C2 (single isomer, unassigned) [Example 16.1, ((1s or r),3R,5′S,7a′R)-5′-(3,5-difluorophenyl)-3-phenoxytetrahydro-3′H-spiro[cyclobutane-1,2′-pyrrolo[2,1-b]oxazol]-3′-one]
